Like-named read-outs stand apart in the source and are kept apart here.
How the values were obtained:
EGFR L858R/T790M/C797S = EGFR L858R/T790M/C797S (Homo sapiens, UniProt P00533, C797S/L858R/T790M); assay: Biochemical EGFR kinase assay (Lance Ultra TR-FRET), triple mutant L858R/T790M/C797S
In short: (§1)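 In this biochemical assay, phosphorylation after a one-hour room-temperature reaction was detected with europium-labelled anti-phosphopeptide antibody at 2 nM final concentration.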

EGFR L858R/C797S = EGFR L858R/C797S (Homo sapiens, UniProt P00533, C797S/L858R); assay: Biochemical EGFR kinase assay (Lance Ultra TR-FRET), double mutant L858R/C797S
In short: as §1

EGFR wildtype (WT) = EGFR wildtype (WT) (Homo sapiens, UniProt P00533); assay: Biochemical EGFR kinase assay (Lance Ultra TR-FRET), wildtype
Sequence of EGFR wildtype (WT) (P00533 25-1210): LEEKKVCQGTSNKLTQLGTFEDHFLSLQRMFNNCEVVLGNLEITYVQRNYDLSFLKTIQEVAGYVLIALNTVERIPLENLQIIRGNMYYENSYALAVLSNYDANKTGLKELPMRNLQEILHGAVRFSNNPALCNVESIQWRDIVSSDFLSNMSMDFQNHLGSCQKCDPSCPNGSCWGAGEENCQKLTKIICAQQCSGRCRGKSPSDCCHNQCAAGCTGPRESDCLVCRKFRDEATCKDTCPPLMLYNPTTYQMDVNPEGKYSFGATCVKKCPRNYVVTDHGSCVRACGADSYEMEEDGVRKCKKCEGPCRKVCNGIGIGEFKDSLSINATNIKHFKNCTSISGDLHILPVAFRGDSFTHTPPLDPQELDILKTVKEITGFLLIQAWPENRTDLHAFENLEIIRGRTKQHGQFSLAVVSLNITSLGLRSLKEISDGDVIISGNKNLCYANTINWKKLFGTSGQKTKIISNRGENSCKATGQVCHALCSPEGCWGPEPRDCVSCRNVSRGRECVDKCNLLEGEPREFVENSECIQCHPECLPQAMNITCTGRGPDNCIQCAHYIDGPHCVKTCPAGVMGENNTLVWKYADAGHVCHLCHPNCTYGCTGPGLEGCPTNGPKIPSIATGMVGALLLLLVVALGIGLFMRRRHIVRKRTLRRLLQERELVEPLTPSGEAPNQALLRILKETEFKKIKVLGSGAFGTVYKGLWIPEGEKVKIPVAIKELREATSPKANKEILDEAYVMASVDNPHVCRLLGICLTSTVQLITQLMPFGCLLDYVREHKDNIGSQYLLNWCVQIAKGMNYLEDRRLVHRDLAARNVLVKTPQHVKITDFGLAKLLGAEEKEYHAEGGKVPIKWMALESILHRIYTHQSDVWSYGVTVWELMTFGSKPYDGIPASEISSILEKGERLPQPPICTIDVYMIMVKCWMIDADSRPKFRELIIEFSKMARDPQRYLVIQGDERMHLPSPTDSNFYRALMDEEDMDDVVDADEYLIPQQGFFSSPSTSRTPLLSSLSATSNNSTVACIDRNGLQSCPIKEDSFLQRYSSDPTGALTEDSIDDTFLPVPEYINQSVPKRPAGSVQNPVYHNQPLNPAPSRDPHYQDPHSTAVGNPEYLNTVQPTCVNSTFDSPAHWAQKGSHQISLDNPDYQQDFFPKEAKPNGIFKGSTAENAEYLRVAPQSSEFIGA
In short: as §1

EGFR del19/C797S = EGFR del19/C797S (Homo sapiens, UniProt P00533, C797S/DEL746-750); assay: Biochemical EGFR kinase assay (Lance Ultra TR-FRET), double mutant del19/C797S
Sequence of EGFR del19/C797S (P00533 with tags, fused parts or gaps DEL746-750/C797S): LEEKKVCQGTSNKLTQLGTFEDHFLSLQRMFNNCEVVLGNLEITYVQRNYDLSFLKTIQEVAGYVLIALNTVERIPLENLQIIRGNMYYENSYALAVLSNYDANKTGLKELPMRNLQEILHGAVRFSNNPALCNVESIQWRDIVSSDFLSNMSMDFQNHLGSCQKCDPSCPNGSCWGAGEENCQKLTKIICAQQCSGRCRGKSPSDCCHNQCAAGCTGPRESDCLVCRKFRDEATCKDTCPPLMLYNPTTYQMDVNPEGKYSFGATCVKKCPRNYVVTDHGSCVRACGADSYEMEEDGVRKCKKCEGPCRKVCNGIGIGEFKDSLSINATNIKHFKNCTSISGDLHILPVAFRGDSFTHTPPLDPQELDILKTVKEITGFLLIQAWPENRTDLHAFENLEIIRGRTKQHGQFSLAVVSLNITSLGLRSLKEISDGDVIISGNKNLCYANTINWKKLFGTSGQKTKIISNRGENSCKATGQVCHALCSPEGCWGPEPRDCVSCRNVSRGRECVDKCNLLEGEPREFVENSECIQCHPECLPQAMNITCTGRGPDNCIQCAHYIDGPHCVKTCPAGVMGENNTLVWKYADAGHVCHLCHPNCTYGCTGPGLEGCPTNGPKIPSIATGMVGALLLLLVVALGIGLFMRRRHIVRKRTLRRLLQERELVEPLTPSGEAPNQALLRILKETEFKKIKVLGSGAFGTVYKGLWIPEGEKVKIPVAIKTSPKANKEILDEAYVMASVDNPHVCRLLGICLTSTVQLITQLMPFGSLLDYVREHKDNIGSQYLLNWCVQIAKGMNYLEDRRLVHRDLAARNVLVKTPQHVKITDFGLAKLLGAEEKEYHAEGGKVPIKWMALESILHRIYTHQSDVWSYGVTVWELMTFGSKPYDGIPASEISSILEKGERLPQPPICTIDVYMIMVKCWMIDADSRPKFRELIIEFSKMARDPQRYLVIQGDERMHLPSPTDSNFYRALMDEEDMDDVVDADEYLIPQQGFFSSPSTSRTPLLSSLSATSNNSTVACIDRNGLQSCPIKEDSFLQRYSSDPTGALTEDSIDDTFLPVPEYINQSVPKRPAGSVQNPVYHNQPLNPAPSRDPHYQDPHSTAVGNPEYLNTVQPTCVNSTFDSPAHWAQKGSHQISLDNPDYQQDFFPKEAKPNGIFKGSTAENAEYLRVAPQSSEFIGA
In short: as §1

EGFR del19/T790M/C797S = EGFR del19/T790M/C797S (Homo sapiens, UniProt P00533, C797S/DEL746-750/T790M); assay: Biochemical EGFR kinase assay (Lance Ultra TR-FRET), triple mutant del19/T790M/C797S
Sequence of EGFR del19/T790M/C797S (P00533 with tags, fused parts or gaps DEL746-750/T790M/C797S): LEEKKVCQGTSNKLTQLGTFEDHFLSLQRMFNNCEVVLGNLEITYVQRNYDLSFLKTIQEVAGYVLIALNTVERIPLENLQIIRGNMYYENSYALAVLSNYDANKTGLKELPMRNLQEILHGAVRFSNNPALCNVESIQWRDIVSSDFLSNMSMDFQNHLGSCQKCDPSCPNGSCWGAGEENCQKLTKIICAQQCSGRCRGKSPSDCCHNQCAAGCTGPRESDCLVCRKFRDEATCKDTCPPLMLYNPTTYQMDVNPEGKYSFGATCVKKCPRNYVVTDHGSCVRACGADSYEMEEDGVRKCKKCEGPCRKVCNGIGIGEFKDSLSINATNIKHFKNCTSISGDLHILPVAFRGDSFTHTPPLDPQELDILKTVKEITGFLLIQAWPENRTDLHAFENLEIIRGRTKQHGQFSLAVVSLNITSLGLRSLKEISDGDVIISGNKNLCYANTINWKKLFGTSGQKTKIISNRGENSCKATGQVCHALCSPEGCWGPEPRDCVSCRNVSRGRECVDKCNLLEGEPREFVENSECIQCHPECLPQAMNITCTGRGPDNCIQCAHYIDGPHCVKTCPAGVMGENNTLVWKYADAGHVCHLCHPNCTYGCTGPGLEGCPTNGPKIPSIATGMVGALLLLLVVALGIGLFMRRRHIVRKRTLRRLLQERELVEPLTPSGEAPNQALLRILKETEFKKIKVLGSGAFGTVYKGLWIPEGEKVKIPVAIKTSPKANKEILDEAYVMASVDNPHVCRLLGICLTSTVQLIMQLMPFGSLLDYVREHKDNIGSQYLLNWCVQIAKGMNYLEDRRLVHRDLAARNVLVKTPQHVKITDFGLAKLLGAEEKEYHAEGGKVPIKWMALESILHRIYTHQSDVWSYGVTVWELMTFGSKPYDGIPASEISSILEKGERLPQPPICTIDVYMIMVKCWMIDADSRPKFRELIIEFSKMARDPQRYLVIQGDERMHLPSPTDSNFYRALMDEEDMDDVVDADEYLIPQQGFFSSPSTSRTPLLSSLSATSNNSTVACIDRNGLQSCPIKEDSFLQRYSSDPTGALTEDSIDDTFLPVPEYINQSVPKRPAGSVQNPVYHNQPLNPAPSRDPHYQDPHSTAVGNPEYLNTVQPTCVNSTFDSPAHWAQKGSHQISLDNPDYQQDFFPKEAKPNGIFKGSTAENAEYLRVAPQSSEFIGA
In short: as §1

[1] = IC50 L858R/T790M/C797S (nM) 100 μM ATP, 100 μM ATP
[2] = Km ATP, read-out: IC50 L858R/T790M/C797S (nM) Km ATP
[3] = IC50 L858R/C797S (nM) 100 μM ATP, 100 μM ATP
[4] = Km ATP, read-out: IC50 L858R/C797S (nM) Km ATP
[5] = IC50 WT (nM) 100 μM ATP, 100 μM ATP
[6] = Km ATP, read-out: IC50 WT (nM) Km ATP
[7] = IC50 del19/C797S (nM) 100 μM ATP, 100 μM ATP
[8] = Km ATP, read-out: IC50 del19/C797S (nM) Km ATP
[9] = IC50 del19/T790M/C797S (nM) 100 μM ATP, 100 μM ATP
[10] = Km ATP, read-out: IC50 del19/T790M/C797S (nM) Km ATP

Sequence of EGFR L858R/T790M/C797S (P00533 25-1210 T790M/C797S/L858R): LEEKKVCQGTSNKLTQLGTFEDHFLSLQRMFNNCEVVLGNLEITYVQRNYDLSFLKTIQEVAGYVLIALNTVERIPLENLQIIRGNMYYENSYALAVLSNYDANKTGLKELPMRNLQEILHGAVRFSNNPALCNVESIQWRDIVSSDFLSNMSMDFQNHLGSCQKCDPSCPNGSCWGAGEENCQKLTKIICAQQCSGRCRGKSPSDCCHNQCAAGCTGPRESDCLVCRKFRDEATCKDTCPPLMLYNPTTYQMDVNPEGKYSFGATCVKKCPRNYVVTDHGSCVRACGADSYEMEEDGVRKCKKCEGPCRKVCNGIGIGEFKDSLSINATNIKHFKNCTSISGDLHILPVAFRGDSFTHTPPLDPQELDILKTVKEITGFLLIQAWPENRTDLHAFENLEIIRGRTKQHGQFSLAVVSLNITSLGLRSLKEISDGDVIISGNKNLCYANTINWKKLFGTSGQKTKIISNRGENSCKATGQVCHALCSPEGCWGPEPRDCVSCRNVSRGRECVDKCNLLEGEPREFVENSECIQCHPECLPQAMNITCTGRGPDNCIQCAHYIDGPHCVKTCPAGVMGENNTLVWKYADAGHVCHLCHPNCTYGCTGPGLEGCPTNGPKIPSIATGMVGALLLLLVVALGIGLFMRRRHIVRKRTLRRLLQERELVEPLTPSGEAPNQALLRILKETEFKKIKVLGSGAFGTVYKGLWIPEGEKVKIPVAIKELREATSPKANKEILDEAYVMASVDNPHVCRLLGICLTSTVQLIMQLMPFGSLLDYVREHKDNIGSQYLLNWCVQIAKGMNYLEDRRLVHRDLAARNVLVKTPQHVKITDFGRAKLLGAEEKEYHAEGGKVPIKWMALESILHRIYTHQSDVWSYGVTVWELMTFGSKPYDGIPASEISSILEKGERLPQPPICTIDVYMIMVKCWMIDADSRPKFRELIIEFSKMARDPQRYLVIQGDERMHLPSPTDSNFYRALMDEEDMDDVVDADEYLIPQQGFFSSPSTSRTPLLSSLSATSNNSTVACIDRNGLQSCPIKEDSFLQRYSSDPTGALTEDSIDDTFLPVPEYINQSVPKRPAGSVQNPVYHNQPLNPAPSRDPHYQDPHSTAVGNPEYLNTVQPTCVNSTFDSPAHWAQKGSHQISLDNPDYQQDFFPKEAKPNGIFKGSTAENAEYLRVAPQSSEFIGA

C[C@]1(O)CC[C@@H](Nc2cc(Nc3nc(-c4cnn(S(=O)(=O)C5CC5)c4)ncc3F)ncc2-c2ccn(C(F)F)n2)CC1 [Example 316, (1s,4s)-4-((2-((2-(1-(Cyclopropylsulfonyl)-1H-pyrazol-4-yl)-5-fluoropyrimidin-4-yl)amino)-5-(1-(difluoromethyl)-1H-pyrazol-3-yl)pyridin-4-yl)amino)-1-methylcyclohexan-1-ol]
IC50 (EGFR L858R/T790M/C797S; [1]): 1 nM | IC50 (EGFR L858R/T790M/C797S; [2]): 0.2 nM | IC50 (EGFR L858R/C797S; [3]): 406 nM | IC50 (EGFR L858R/C797S; [4]): 11.2 nM | IC50 (EGFR wildtype (WT); [5]): > 10000 nM | IC50 (EGFR wildtype (WT); [6]): 46 nM | IC50 (EGFR del19/C797S; [7]): 10.5 nM | IC50 (EGFR del19/C797S; [8]): 6 nM | IC50 (EGFR del19/T790M/C797S; [9]): 0.7 nM | IC50 (EGFR del19/T790M/C797S; [10]): 0.4 nM

O=S(=O)(C1CC1)n1cc(-c2nccc(Nc3cc(NC[C@H]4C[C@H](CO)C4)c(-c4ccn(C(F)F)n4)cn3)n2)cn1 [Example 189, ((1r,3r)-3-(((2-((2-(1-(Cyclopropylsulfonyl)-1H-pyrazol-4-yl)pyrimidin-4-yl)amino)-5-(1-(difluoromethyl)-1H-pyrazol-3-yl)pyridin-4-yl)amino)methyl)cyclobutyl)methanol]
IC50 (EGFR L858R/T790M/C797S; [1]): 0.2 nM | IC50 (EGFR L858R/T790M/C797S; [2]): 0.3 nM | IC50 (EGFR L858R/C797S; [3]): 27.1 nM | IC50 (EGFR L858R/C797S; [4]): 3.1 nM | IC50 (EGFR wildtype (WT); [5]): > 10000 nM | IC50 (EGFR wildtype (WT); [6]): 20.1 nM | IC50 (EGFR del19/C797S; [7]): 1.8 nM | IC50 (EGFR del19/C797S; [8]): 1.2 nM | IC50 (EGFR del19/T790M/C797S; [9]): 0.4 nM | IC50 (EGFR del19/T790M/C797S; [10]): 0.5 nM

O=S(=O)(C1CC1)n1cc(-c2nccc(Nc3cc(N[C@H]4CC[C@@H](NCCF)CC4)c(-c4ccn(C(F)F)n4)cn3)n2)cn1 [Example 9, N^2-(2-(1-(Cyclopropylsulfonyl)-1H-pyrazol-4-yl)pyrimidin-4-yl)-5-(1-(difluoromethyl)-1H-pyrazol-3-yl)-N^4-((1s,4s)-4-((2-fluoroethyl)amino)cyclohexyl)pyridine-2,4-diamine]
IC50 (EGFR L858R/T790M/C797S; [1]): 0.5 nM | IC50 (EGFR L858R/C797S; [3]): 7.6 nM | IC50 (EGFR wildtype (WT); [5]): 7100 nM | IC50 (EGFR del19/C797S; [7]): 4.3 nM | IC50 (EGFR del19/T790M/C797S; [9]): 0.5 nM

Cc1nn(C)c(F)c1-c1nccc(Nc2cc(N[C@H]3CC[C@@](C)(O)CC3)c(-c3ccn(C(F)F)n3)cn2)n1 [Example 319, (1s,4s)-4-((5-(1-(Difluoromethyl)-1H-pyrazol-3-yl)-2-((2-(5-fluoro-1,3-dimethyl-1H-pyrazol-4-yl)pyrimidin-4-yl)amino)pyridin-4-yl)amino)-1-methylcyclohexan-1-ol]
IC50 (EGFR L858R/T790M/C797S; [2]): 0.3 nM | IC50 (EGFR L858R/C797S; [4]): 16.9 nM | IC50 (EGFR wildtype (WT); [6]): 184 nM | IC50 (EGFR del19/C797S; [8]): 47.3 nM | IC50 (EGFR del19/T790M/C797S; [10]): 0.4 nM

O=S(=O)(C1CC1)n1cc(-c2nccc(Nc3cc(N[C@@H]4CC[C@H](O)C4)c(-c4ccn(C(F)F)n4)cn3)n2)cn1 [Example 13, (1S,3R)-3-((2-((2-(1-(Cyclopropylsulfonyl)-1H-pyrazol-4-yl)pyrimidin-4-yl)amino)-5-(1-(difluoromethyl)-1H-pyrazol-3-yl)pyridin-4-yl)amino)cyclopentan-1-ol]
IC50 (EGFR L858R/T790M/C797S; [1]): 1 nM | IC50 (EGFR L858R/C797S; [3]): 12.4 nM | IC50 (EGFR wildtype (WT); [5]): 5620 nM | IC50 (EGFR del19/C797S; [7]): 3.8 nM | IC50 (EGFR del19/T790M/C797S; [9]): 0.7 nM

C[C@]1(O)CC[C@@H](Nc2cc(Nc3ccnc(-c4cnn(C(F)F)c4)n3)ncc2-c2ccn(C(F)F)n2)CC1 [Example 149, (1s,4s)-4-((5-(1-(Difluoromethyl)-1H-pyrazol-3-yl)-2-((2-(1-(difluoromethyl)-1H-pyrazol-4-yl)pyrimidin-4-yl)amino)pyridin-4-yl)amino)-1-methylcyclohexan-1-ol]
IC50 (EGFR L858R/T790M/C797S; [2]): 2.7 nM | IC50 (EGFR L858R/C797S; [4]): 47.2 nM | IC50 (EGFR wildtype (WT); [6]): 1730 nM | IC50 (EGFR del19/C797S; [8]): 144 nM | IC50 (EGFR del19/T790M/C797S; [10]): 2.7 nM

CS(=O)(=O)n1ccc(-c2nccc(Nc3cc(N[C@H]4CC[C@@](C)(O)CC4)c(-c4ccn(C(F)F)n4)cn3)n2)c1 [Example 108, (1s,4s)-4-((5-(1-(Difluoromethyl)-1H-pyrazol-3-yl)-2-((2-(1-(methylsulfonyl)-1H-pyrrol-3-yl)pyrimidin-4-yl)amino)pyridin-4-yl)amino)-1-methylcyclohexan-1-ol]
IC50 (EGFR L858R/T790M/C797S; [2]): 0.5 nM | IC50 (EGFR L858R/C797S; [4]): 2 nM | IC50 (EGFR wildtype (WT); [6]): 57.2 nM | IC50 (EGFR del19/C797S; [8]): 23.7 nM | IC50 (EGFR del19/T790M/C797S; [10]): 1.2 nM

CS(=O)(=O)c1ccn(-c2cnc(Nc3ccnc(-c4cnn(S(=O)(=O)C5CC5)c4)n3)cc2N[C@H]2CC[C@@](C)(O)CC2)n1 [Example 183, (1s,4s)-4-((2-((2-(1-(Cyclopropylsulfonyl)-1H-pyrazol-4-yl)pyrimidin-4-yl)amino)-5-(3-(methylsulfonyl)-1H-pyrazol-1-yl)pyridin-4-yl)amino)-1-methylcyclohexan-1-ol]
IC50 (EGFR L858R/T790M/C797S; [2]): 0.6 nM | IC50 (EGFR L858R/C797S; [4]): 37.1 nM | IC50 (EGFR wildtype (WT); [6]): 624 nM | IC50 (EGFR del19/C797S; [8]): 42.8 nM | IC50 (EGFR del19/T790M/C797S; [10]): 0.8 nM

C[C@]1(O)CC[C@@H](Nc2cc(Nc3ccnc(Nc4ccnn4CC(F)F)n3)ncc2-c2ccn(C(F)F)n2)CC1 [Example 155, (1s,4s)-4-((2-((2-((1-(2,2-Difluoroethyl)-1H-pyrazol-5-yl)amino)pyrimidin-4-yl)amino)-5-(1-(difluoromethyl)-1H-pyrazol-3-yl)pyridin-4-yl)amino)-1-methylcyclohexan-1-ol]
IC50 (EGFR L858R/T790M/C797S; [2]): 2.8 nM | IC50 (EGFR L858R/C797S; [4]): 139 nM | IC50 (EGFR wildtype (WT); [6]): 1100 nM | IC50 (EGFR del19/C797S; [8]): 162 nM | IC50 (EGFR del19/T790M/C797S; [10]): 4.2 nM

CC(C)Nc1cc(Nc2ccnc(-c3cnn(S(=O)(=O)C4CC4)c3)n2)ncc1-c1ccn(CCC(F)(F)F)n1 [Example 304, N^2-(2-(1-(Cyclopropylsulfonyl)-1H-pyrazol-4-yl)pyrimidin-4-yl)-N^4-isopropyl-5-(1-(3,3,3-trifluoropropyl)-1H-pyrazol-3-yl)pyridine-2,4-diamine]
IC50 (EGFR L858R/T790M/C797S; [2]): 1.8 nM | IC50 (EGFR L858R/C797S; [4]): 0.8 nM | IC50 (EGFR wildtype (WT); [6]): 355 nM | IC50 (EGFR del19/C797S; [8]): 340 nM | IC50 (EGFR del19/T790M/C797S; [10]): 1.1 nM

Cn1nc(-c2nnc(Nc3ccnc(-c4cnn(S(=O)(=O)C5CC5)c4)n3)cc2N[C@H]2CC[C@@](C)(O)CC2)cc1C(F)(F)F [Example 373, (1s,4s)-4-((6-((2-(1-(Cyclopropylsulfonyl)-1H-pyrazol-4-yl)pyrimidin-4-yl)amino)-3-(1-methyl-5-(trifluoromethyl)-1H-pyrazol-3-yl)pyridazin-4-yl)amino)-1-methylcyclohexan-1-ol]
IC50 (EGFR L858R/T790M/C797S; Km ATP, read-out: IC50 L858R/T790M/C797S, Km ATP): 3 nM | IC50 (EGFR L858R/C797S; Km ATP, read-out: IC50 L858R/C797S, Km ATP): 226 nM | IC50 (EGFR wildtype (WT); Km ATP, read-out: IC50 WT, Km ATP): 714 nM | IC50 (EGFR del19/C797S; Km ATP, read-out: IC50 del19/C797S, Km ATP): 663 nM | IC50 (EGFR del19/T790M/C797S; Km ATP, read-out: IC50 del19/T790M/C797S, Km ATP): 0.5 nM

CN(C)CC1(C)CCC(Nc2cc(Nc3ccnc(-c4cnn(S(=O)(=O)C5CC5)c4)n3)ncc2-c2ccn(CC(F)(F)F)n2)CC1 (centres unmarked) [Example 267, N^2-(2-(1-(Cyclopropylsulfonyl)-1H-pyrazol-4-yl)pyrimidin-4-yl)-N^4-(4-((dimethylamino)methyl)-4-methylcyclohexyl)-5-(1-(2,2,2-trifluoroethyl)-1H-pyrazol-3-yl)pyridine-2,4-diamine]
IC50 (EGFR L858R/T790M/C797S; [1]): 0.1 nM | IC50 (EGFR L858R/T790M/C797S; [2]): 0.5 nM | IC50 (EGFR L858R/C797S; [3]): 576 nM | IC50 (EGFR L858R/C797S; [4]): 25.4 nM | IC50 (EGFR wildtype (WT); [5]): 8270 nM | IC50 (EGFR wildtype (WT); [6]): 28.7 nM | IC50 (EGFR del19/C797S; [7]): 8.8 nM | IC50 (EGFR del19/C797S; [8]): 6.7 nM | IC50 (EGFR del19/T790M/C797S; [9]): 0.1 nM | IC50 (EGFR del19/T790M/C797S; [10]): 0.2 nM

O=S(=O)(C1CC1)n1cc(-c2ncc(F)c(Nc3cc(N[C@H]4CC[C@@H](CN5CCC5)CC4)c(-c4ccn(C(F)F)n4)cn3)n2)cn1 [Example 327, N^4-((1s,4s)-4-(Azetidin-1-ylmethyl)cyclohexyl)-N^2-(2-(1-(cyclopropylsulfonyl)-1H-pyrazol-4-yl)-5-fluoropyrimidin-4-yl)-5-(1-(difluoromethyl)-1H-pyrazol-3-yl)pyridine-2,4-diamine]
IC50 (EGFR L858R/T790M/C797S; [2]): 0.2 nM | IC50 (EGFR L858R/C797S; [4]): 2.8 nM | IC50 (EGFR wildtype (WT); [6]): 6.5 nM | IC50 (EGFR del19/C797S; [8]): 1.7 nM | IC50 (EGFR del19/T790M/C797S; [10]): 0.4 nM

From patent US12258327B2, “5-membered heteroaryl-containing aminopyridine compounds as EGFR inhibitors” (YUHAN CORPORATION, priority 2021, dated 2025)
